The nature of data set [1]: Surface tension of blood containing blood modifying agent, pendant drop method. The note with it: 0.10 mass % in sheep defibrinated blood, 35 ° C. The protocol: The surface tension of blood containing a blood modifying agent was measured by the pendant drop method, using a Drop Master500 contact angle meter by Kyowa Interface Science Co., Ltd. The surface tension was measured after adding a prescribed amount of blood modifying agent to sheep defibrinated blood, and thoroughly shaking. The measurement was accomplished automatically with a device, and the surface tension γ was determined by the following formula (see FIG. 13). γ=g×ρ×(de)^2×1/H The density ρ was measured at the temperatures listed in Table 5, according to JIS K 2249-1995, “Density test methods and density/mass/volume conversion tables”, “5. Vibrating density test method”. The measurement was accomplished using a DA-505 by Kyoto Electronics Co., Ltd.

The text on data set [2]:
The term “solubility” used herein in regard to water solubility includes cases where the sample completely dissolves in deionized water to form a homogeneous mixture, and cases where the sample is completely emulsified. Here, “completely” means that no mass of the sample remains in the deionized water.

Structures are written as SMILES.

The compound `CCCCCCCCCCCCOC(=O)CCCCCCCCCCC` [ELECTOL WE20, Ester of dodecanoic acid (C12) and dodecyl alcohol (C12)] had a Surface tension in data set [1] of 58.8 mN/m.

Consider `CCCCCCCC(=O)OCC(COC(=O)CCCCCCC)OC(=O)CCCCCCC` [PANACET 800], for which, in data set [2], the Water solubility was <0.05 g.

(Values after US9387135B2, “Absorbent article” (UNICHARM CORPORATION, priority 2012, dated 2016).)
